Test results reported in PMC10726357, “New Genetically Engineered Derivatives of Antibacterial Darobactins Underpin Their Potential for Antibiotic Development” (Journal of Medicinal Chemistry, 2023).
Values after ≈ are worked out from the molar mass of the structure shown. Read-outs that look alike come from different tables or passages of the source. Where no end group is shown, it is not given here.

What was measured:
[1] = tested on: A. baumannii DSM-30008; assay type: cell-based, Acinetobacter baumannii
Procedure: (§1) The antibacterial activity of novel darobactins was determined by the evaluation of the minimum inhibitory concentration (MIC) as previously described for crude extracts and for pure darobactin analogues.[12]

[2] = tested on: K. pneumoniae DSM-30104; assay type: cell-based, Klebsiella pneumoniae
Procedure: as §1

[3] = tested on: P. aeruginosa PA01; assay type: cell-based, Pseudomonas aeruginosa
Procedure: as §1

[4] = tested on: E. coli ATCC25922; assay type: cell-based, Escherichia coli
Procedure: as §1

[5] = biological target: T1, EcBamA (E. coli BamA barrel domain) (Escherichia coli, UniProt P0A940, C690S/C700S); assay: Microscale thermophoresis (MST) KD determination; assay type: binding
T1 construct: The E. coli BamA barrel domain (BamA-β) (residues 421–810, C690S, C700S); made in house
Procedure: As an alternative to the previously published methods using isothermal titration calorimetry (ITC), we established a KD determination assay using microscale thermophoresis (MST) to enable higher throughput.
Microscale thermophoresis (MST) (serial no. 201709-BR-N024, Monolith NT.115 Micro Scale Thermophoresis, NanoTemper Technologies GmbH) was performed according to the standard protocol from the manufacturer NanoTemper Technologies GmbH using a Monolith His-Tag Labeling Kit RED-tris-NTA second-generation kit. The buffer used was HEPES (50 mM), pH 7.6, MgCl2 (5 mM), and Tween (0.05%). […] A 1:1 dilution of the ligand over 16 samples was performed using a stock of ligand (in water) diluted in HEPES buffer. Nonhydrophobic capillary tubes were used. A pretest to check for the labeling and compound fluorescence was performed for every sample followed by a binding affinity (KD) determination. Each sample was measured after 15 min of incubation at RT and analyzed in MO Control version 1.6.

[6] = tested on: HepG2
[7] = tested on: Acinetobacter baumannii DSM-30008; assay: Antibacterial activity screening of darobactin-containing crude extracts; assay type: cell-based; design: key: two-fold serial dilution from 1:15 (A) (concentration factor: 6.67×); low activity A B C D E F G H high activity; low activity A B C D E F G H high activity; low activity A B C D E F G H high activity; low activity A B C D E F G H high activity; low activity A B C D E F G H high activity; low activity A B C D E F G H high activity; to 1:3,840 (H) (concentration factor: 0.05×); settings: derivative-containing crude extract, two-fold serial dilution
Procedure: (§2) The extracts of production clones for all derivatives were prepared and tested for their antibacterial activity against E. coli ATCC 25922, P. aeruginosa PA01, K. pneumoniae DSM-30104, and A. baumannii DSM-30008.
as §1

[8] = tested on: Escherichia coli ATCC 25922; assay: as above; assay type: cell-based; design: key: two-fold serial dilution from 1:15 (A) (concentration factor: 6.67×); low activity A B C D E F G H high activity; low activity A B C D E F G H high activity; low activity A B C D E F G H high activity; low activity A B C D E F G H high activity; low activity A B C D E F G H high activity; low activity A B C D E F G H high activity; to 1:3,840 (H) (concentration factor: 0.05×); settings: derivative-containing crude extract, two-fold serial dilution
Procedure: as §2, §1

[9] = tested on: Klebsiella pneumoniae DSM-30104; assay: as above; assay type: cell-based; design: key: two-fold serial dilution from 1:15 (A) (concentration factor: 6.67×); low activity A B C D E F G H high activity; low activity A B C D E F G H high activity; low activity A B C D E F G H high activity; low activity A B C D E F G H high activity; low activity A B C D E F G H high activity; low activity A B C D E F G H high activity; to 1:3,840 (H) (concentration factor: 0.05×); settings: derivative-containing crude extract, two-fold serial dilution
Procedure: as §2, §1

[10] = tested on: P. aeruginosa PA01; assay: as above; assay type: cell-based, Pseudomonas aeruginosa; design: key: two-fold serial dilution from 1:15 (A) (concentration factor: 6.67×); low activity A B C D E F G H high activity; low activity A B C D E F G H high activity; low activity A B C D E F G H high activity; low activity A B C D E F G H high activity; low activity A B C D E F G H high activity; low activity A B C D E F G H high activity; to 1:3,840 (H) (concentration factor: 0.05×); settings: derivative-containing crude extract, two-fold serial dilution
Procedure: as §2, §1

| Molecule | antimicrobial activity of crude extract: highest dilution factor with full growth inhibition, A. baumannii DSM-30008 [7] | antimicrobial activity of crude extract: highest dilution factor with full growth inhibition, E. coli ATCC25922 [8] | antimicrobial activity of crude extract: highest dilution factor with full growth inhibition, K. pneumoniae DSM-30104 [9] | antimicrobial activity of crude extract: highest dilution factor with full growth inhibition, P. aeruginosa PA01 [10] | further results |
| --- | --- | --- | --- | --- | --- |
| C[C@@H](O)[C@@H]1NC(=O)[C@H]2NC(=O)[C@H](CC(N)=O)NC(=O)[C@@H](N)Cc3c[nH]c4c(cccc34)O[C@@H]2c2c[nH]c3cc(ccc23)[C@H](CCNC(=N)N)[C@@H](C(=O)N[C@@H](CCCNC(=N)N)C(=O)N[C@@H](Cc2c[nH]c3ccccc23)C(=O)O)NC1=O [D39] |  |  |  |  | MIC A. baumannii [DSM-30008] ([1]; DSM-30008): 0.5 to 2 µg/mL; MIC K. pneumoniae [DSM-30104] ([2]; DSM-30104): 4 to 8 µg/mL; MIC P. aeruginosa [PA01] [3]: 2 µg/mL (≈ 1.79 µM); MIC E. coli [ATCC25922] ([4]; ATCC25922): 4 to 8 µg/mL; Kd [5]: 10.9 ± 3.5 µM; IC50 HepG2 [6]: >37 µg/mL |
| C[C@@H](O)[C@@H]1NC(=O)[C@H]2NC(=O)[C@H](CCC(=O)O)NC(=O)[C@@H](N)Cc3c[nH]c4c(cccc34)O[C@@H]2c2c[nH]c3cc(ccc23)[C@H](CCCN)[C@@H](C(=O)N[C@@H](CCCNC(=N)N)C(=O)N[C@@H](Cc2c[nH]c3ccccc23)C(=O)O)NC1=O [D58] |  |  |  |  | MIC A. baumannii [DSM-30008] ([1]; pure compound, n = 2, Table 2): 2 µg/mL (≈ 1.81 µM); MIC K. pneumoniae [DSM-30104] ([2]; pure compound, n = 2, Table 2): 16 µg/mL (≈ 14.5 µM); MIC P. aeruginosa [PA01] ([3]; pure compound, n = 2, Table 2): 8 µg/mL (≈ 7.25 µM); MIC E. coli [ATCC25922] ([4]; pure compound, n = 2, Table 2): 8 µg/mL (≈ 7.25 µM); Kd [5]: 5.1 ± 3.7 µM; IC50 HepG2 ([6]; cytotoxicity, n = 2): > 37 µg/mL |
| C[C@@H](O)[C@@H]1NC(=O)[C@H]2NC(=O)[C@H](CC(=O)O)NC(=O)[C@@H](N)Cc3c[nH]c4c(cccc34)O[C@@H]2c2c[nH]c3cc(ccc23)[C@H](CCCN)[C@@H](C(=O)N[C@@H](CCCNC(=N)N)C(=O)N[C@@H](Cc2c[nH]c3ccccc23)C(=O)O)NC1=O [D60] |  |  |  |  | MIC A. baumannii [DSM-30008] ([1]; DSM-30008): 2 µg/mL (≈ 1.84 µM); MIC K. pneumoniae [DSM-30104] ([2]; DSM-30104): 16 µg/mL (≈ 14.7 µM); MIC P. aeruginosa [PA01] [3]: 4 µg/mL (≈ 3.67 µM); MIC E. coli [ATCC25922] ([4]; ATCC25922): 16 µg/mL (≈ 14.7 µM); IC50 HepG2 [6]: > 37 µg/mL |
| C[C@@H](O)[C@@H]1NC(=O)[C@H]2NC(=O)[C@H](CC(N)=O)NC(=O)[C@@H](N)Cc3c[nH]c4c(cccc34)O[C@@H]2c2c[nH]c3cc(ccc23)[C@H](CCCN)[C@@H](C(=O)N[C@@H](CCC(N)=O)C(=O)N[C@@H](Cc2c[nH]c3ccccc23)C(=O)O)NC1=O [D74] |  |  |  |  | MIC A. baumannii [DSM-30008] ([1]; DSM-30008): 4 µg/mL (≈ 3.77 µM); MIC K. pneumoniae [DSM-30104] ([2]; DSM-30104): 16 µg/mL (≈ 15.1 µM); MIC P. aeruginosa [PA01] [3]: 2 µg/mL (≈ 1.89 µM); MIC E. coli [ATCC25922] ([4]; ATCC25922): 4 µg/mL (≈ 3.77 µM); IC50 HepG2 [6]: > 37 µg/mL |
| D59: novel darobactin derivative, core peptide WKWTKRW (not fully specified (bridges); also: darobactin bicyclic crosslinks) | A | A | A | A |  |
| D62: novel darobactin derivative, core peptide WRWTKRW (not fully specified (bridges); also: darobactin bicyclic crosslinks) | A |  | B |  |  |
| D63: novel darobactin derivative, core peptide WVWTKRW (not fully specified (bridges); also: darobactin bicyclic crosslinks) | C |  | B | A |  |
| D65: novel darobactin derivative, core peptide WSWTKKW (not fully specified (bridges); also: darobactin bicyclic crosslinks) | D | A | A | B |  |
| D66: novel darobactin derivative, core peptide WNWTKCW (not fully specified (bridges); also: darobactin bicyclic crosslinks) | C | A | A | B |  |
| D67: novel darobactin derivative, core peptide WYWTKRW (not fully specified (bridges); also: darobactin bicyclic crosslinks) | E | C | C | D |  |
| D68: novel darobactin derivative, core peptide WLWTKRW (not fully specified (bridges); also: darobactin bicyclic crosslinks) | D | B | B | B |  |
| D70: novel darobactin derivative, core peptide WSWSKRW (also: darobactin bicyclic crosslinks) | E | C | C | D |  |
| D71: novel darobactin derivative, core peptide WEWSKRW (also: darobactin bicyclic crosslinks) | E | C | C | B-C |  |
| D72: novel darobactin derivative, core peptide WKWSKRW (also: darobactin bicyclic crosslinks) | C | C | B | B |  |
| D73: novel darobactin derivative, core peptide WDWSKRW (also: darobactin bicyclic crosslinks) | C | A | A | B |  |
